From publication PMC11040670, “Mechanistic and Kinetic Insights into Cellular Uptake of Biomimetic Dinitrosyl Iron Complexes and Intracellular Delivery of NO for Activation of Cytoprotective HO-1” (JACS Au, 2024)
Values joined by “and” are separate entries in the source; they are usually repeats but may differ in a detail not shown here. Identical values can stand only once. Marks after values point to notes of the source that are not given here.

Assays:
[1] = tested on: N2a; test: Whole-cell EPR: cellular uptake and intracellular formation/decomposition of mononuclear DNIC in N2a; format: cell-based, mouse; details: for tmax for cellular uptake and intracellular transformation (whole-cell EPR): normoxia, 100 μM DNIC–COOH or 10 μM DNIC–COOMe
Method: Cellular uptake of DNIC–COOH and intracellular formation/decomposition of mononuclear DNICs in MSC/N2a/HCEC cells were investigated using EPR spectroscopy. Briefly, cells were seeded into two (or one) 100 mm dish(es) at a density of 2 × 10^6 cells/dish and incubated at 37 °C overnight. On the next day, cells were treated with 100 μM of DNIC–COOH (or 100 μM of DNIC–COOH to N2a and 75 μM of DNIC–COOH to HCEC) and incubated for 0, 0.5, 1, 2, 3, 4, 8, and 24 h, respectively. After removal of the supernatant solution, cells were washed with DPBS before addition of 1 mL of trypsin (0.05%)/EDTA (0.53 mM) and incubation for 5 min at 37 °C. After the obtained cell suspension solutions from two 100 mm dishes were combined and centrifuged at 100g for 5 min, the supernatant was removed before addition of 100 μL of αMEM to DNIC-treated MSC (or MEM to DNIC-treated N2a and HSFM to DNIC-treated HCEC). This solution was then transferred into EPR quartz tube and frozen in N2(l) before the EPR measurements. For each measured EPR spectrum, double integration was executed to obtain the integrated EPR intensity under each condition. Moreover, time-dependent decay of integrated EPR signal intensity after treatment of DNIC–COOH was fit to pseudo-first-order kinetics in order to determine the intracellular half-life for EPR-active mononuclear DNIC. Three independent experiments were executed to measure the average half-life for intracellular decomposition of EPR-active mononuclear DNIC after treatment with DNIC–COOH at 37 °C. On the other hand, at the time point with maximum integrated EPR signal intensity, spin quantitation of intracellular EPR-active DNICs was performed using mononuclear DNIC [PPN][(NO)2Fe(S5)] as a standard according to the methodology used in the previous work.[50] Cellular uptake of DNIC–COOMe (2.5 μM to MSC, 10 μM to N2a, or 1 μM to HCEC) and intracellular formation/decomposition of EPR-active mononuclear DNICs were investigated using EPR spectroscopy in a similar manner.
Studies of cellular uptake mechanisms were investigated using EPR spectroscopy in combination with pretreatments of alternative inhibitors. After the MSC cells were seeded into two (or one) 100 mm dish(es) at a density of 2 × 10^6 cells/dish and incubated at 37 °C overnight, sequential treatments of 50 μM of NEM for 0.5 h and 100 μM of DNIC–COOH for 2 h were performed before the treated MSC cells were collected for EPR measurement following the procedure described above. […]

[2] = Log D7.4 / Log P by n-octanol partitioning (UV–vis); format: physicochemical; details: for Log D7.4: PBS (pH 7.4)/n-octanol
Method: PBS (pH 7.4) and n-octanol were fully degassed before use. After adding 20 μL of 100 mM stock solution of DNIC–COOH in DMSO to 19.98 mL of PBS (pH 7.4), 2 mL of this 100 μM DNIC–COOH solution was added with 2 mL of n-octanol. This mixture solution was vortexed thoroughly for 30 s and incubated until the two solutions were separated. UV–vis spectra of DNIC–COOH in PBS (pH 7.4) and n-octanol were measured in order to determine Log D7.4 using the equation shown below:[96] [drawing 1] AO is the A362 in n-octanol, and APBS is the A362 in PBS (pH 7.4) after partitioning. Log D7.4 for DNIC–COOMe was determined in a similar manner. On the other hand, the Log P value for DNIC–COOH was measured based on its distribution in ddH2O and n-octanol using a similar procedure.[97],[98]

[3] = biological target: T1, metMb (Equus caballus, UniProt P68082); test: Transfer of NO− to metMb yielding MbNO (UV–vis); format: biochemical; details: for reaction time for complete conversion of metMb into MbNO: metMb 5 μM/Cys 200 μM, generated [(NO)2Fe(SR)(SCys)]n−, phosphate buffer (pH 7.4), anaerobic; for change of UV–vis absorption bands of metMb (NO−-transfer): metMb in the presence of BSA (50 mg/mL)
T1 construct: purchased Sigma
Method: After addition of 30 μL of 500 μM stock solution of DNIC–COOH (in DMSO) to a 4 mL quartz cuvette containing 5 μM metMb and 200 μM Cys in 3 mL of 25 mM PBS (pH 7.4), UV–vis spectra for this mixture solution were measured every 30 min. Transformation of […] into MbNO was achieved after reaction for 4 h based on the complete shift of UV–vis absorption bands from (410, 502, and 629) nm to (419, 548, and 578) nm.
Reactions of (a) 5 μM of DNIC–COOMe with 5 μM of metMb in the presence of 200 μM of Cys, (b) 5 μM of DNIC–COOH/DNIC–COOMe with 5 μM of deoxyMb in the presence of 200 μM of Cys, and (c) 5 μM of DNIC–COOH/DNIC–COOMe with 5 μM of metMb in the presence of 50 mg/mL BSA were performed under a similar manner.

T1 sequence (P68082 2-154 limits assumed): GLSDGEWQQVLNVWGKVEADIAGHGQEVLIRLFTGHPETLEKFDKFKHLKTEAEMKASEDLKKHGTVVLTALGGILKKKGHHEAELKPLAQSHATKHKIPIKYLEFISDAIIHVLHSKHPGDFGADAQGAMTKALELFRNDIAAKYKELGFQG

SMILES	relative whole-cell EPR signal intensity at gav = 2.03 (control = 100%) ([1]; CPZ-treated N2a) [%]	relative whole-cell EPR signal intensity at gav = 2.03 (control = 100%) ([1]; MβCD-treated N2a) [%]	tmax for cellular uptake and intracellular transformation (whole-cell EPR) ([1]; N2a) [h]	Log D7.4 [2]	Log P ([2]; ddH2O/n-octanol)	reaction time for complete conversion of metMb into MbNO [3]	reaction time for complete conversion of metMb into MbNO ([3]; listed as DNIC-COOH) [h]	change of UV–vis absorption bands of metMb (NO−-transfer) [3]	relative whole-cell EPR signal intensity at gav = 2.03 (control = 100%) ([1]; N2a, native FBS replaced with 5% NEM-treated FBS) [%]	relative whole-cell EPR signal intensity at gav = 2.03 (control = 100%) ([1]; N2a, pretreatment of NEM 0.5 h, then DNIC–COOMe 0.5 h, reduction) [%]	reaction time for complete conversion of metMb into MbNO ([3]; listed as DNIC-COOMe) [h]
O=[N][Fe]1([N]=O)[SH](CCC(=O)O)[Fe]([N]=O)([N]=O)[SH]1CCC(=O)O (stereo not drawn) [DNIC–COOH, [(NO)2Fe(μ-SCH2CH2COOH)2Fe(NO)2]]	77.6 ± 22.5	81.7 ± 18.2	2	−2.3	1.2	4 h and 4.0 ^f h	4.0	no change			
COC(=O)CC[SH]1[Fe]([N]=O)([N]=O)[SH](CCC(=O)OC)[Fe]1([N]=O)[N]=O (stereo not drawn) [DNIC–COOMe, [(NO)2Fe(μ-SCH2CH2COOCH3)2Fe(NO)2]]			0.5	1.0		4.0 ^f h		no change	116.2 ± 33.6	20.1 ± 9.7	4.0
